# From PubChem BioAssay AID256 (DTP/NCI, 2004)
# Inconclusive results and toxic doses are left out.
# Test system: CD2F1 mice, L1210 leukemia ip, survival T/C
# Assay: NCI In Vivo Anticancer Drug Screen. Data for tumor model L1210 Leukemia (intraperitoneal) in CD2F1 (CDF1) mice
# Details: higher = longer survival
# Outline: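 Read-out first: treated-group measurement over vehicle-control measurement, expressed as a ratio. Animals bore a transplanted tumor line and were dosed with compound or vehicle.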
# [1] = endpoint: mean survival time, dose: 100.0 mg/kg/injection, schedule: Q01DX009 (ip), vehicle: saline with Tween-80
# [2] = endpoint: mean survival time, dose: 200.0 mg/kg/injection, schedule: Q01DX009 (ip), vehicle: saline with Tween-80
# [3] = endpoint: mean survival time, dose: 400.0 mg/kg/injection, schedule: Q01DX009 (ip), vehicle: saline with Tween-80
# [4] = endpoint: mean survival time, dose: 100.0 mg/kg/injection, schedule: Q04DX003 (ip), vehicle: saline with Tween-80
# [5] = endpoint: mean survival time, dose: 200.0 mg/kg/injection, schedule: Q04DX003 (ip), vehicle: saline with Tween-80
# [6] = endpoint: mean survival time, dose: 400.0 mg/kg/injection, schedule: Q04DX003 (ip), vehicle: saline with Tween-80
# [7] = endpoint: mean survival time, dose: 100.0 mg/kg/injection, schedule: Q04DX002 (ip), vehicle: saline with Tween-80
# [8] = endpoint: mean survival time, dose: 200.0 mg/kg/injection, schedule: Q04DX002 (ip), vehicle: saline with Tween-80
structure (smiles),measurement,setting,value
COC1=CCC2=C(CCO2)C1,T/C,"endpoint: mean survival time, dose: 100.0 mg/kg/injection, schedule: Q01DX009 (ip), vehicle: acetone",91 % of control
same,T/C,"endpoint: mean survival time, dose: 200.0 mg/kg/injection, schedule: Q01DX009 (ip), vehicle: acetone",98 % of control
same,T/C,"endpoint: mean survival time, dose: 400.0 mg/kg/injection, schedule: Q01DX009 (ip), vehicle: acetone",100 % of control
Oc1c(CN2CCOCC2)cc(CN2CCOCC2)cc1CN1CCOCC1,T/C,[1],100 % of control
same,T/C,[2],95 % of control
same,T/C,[3],100 % of control
ClI(Cl)c1ccccc1,T/C,[1],98 % of control
O=C(c1ccccc1)C(C(c1ccccc1)N1CCOCC1)N1CCOCC1 (centres undefined),T/C,[4],90 % of control
same,T/C,[2],96 % of control
same,T/C,[5],92 % of control
same,T/C,[3],93 % of control
same,T/C,[6],97 % of control
O=C1c2ccccc2C(=O)c2cc(NS(=O)(=O)C(F)(F)F)ccc21,T/C,"endpoint: mean survival time, dose: 100.0 mg/kg/injection, schedule: Q01DX001 (ip), vehicle: saline",96 % of control
same,T/C,"endpoint: mean survival time, dose: 200.0 mg/kg/injection, schedule: Q01DX001 (ip), vehicle: saline",100 % of control
CCn1c(C)cc(=O)c2ccccc21,T/C,[7],105 % of control
same,T/C,[8],94 % of control
CC12C(=O)C(C)(C(c3ccccc3)=C1c1ccccc1)C([N+](=O)[O-])C2c1ccccc1 (centres undefined),T/C,[7],94 % of control
same,T/C,[8],97 % of control
same,T/C,"endpoint: mean survival time, dose: 400.0 mg/kg/injection, schedule: Q04DX002 (ip), vehicle: saline with Tween-80",94 % of control
Cc1ccc(NC(=O)C2CCC(C)(C(=O)O)C2(C)C)cc1 (centres undefined),T/C,[4],96 % of control
same,T/C,[5],91 % of control
CC12OCCCC1C1CCCCC12 (centres undefined),T/C,[4],95 % of control
same,T/C,[5],95 % of control
same,T/C,[6],90 % of control
O=C(O)C1CCCCC1c1c2ccc(=O)cc-2oc2cc(O)ccc12 (centres undefined),T/C,[4],104 % of control
same,T/C,[5],92 % of control
same,T/C,[6],92 % of control
O=C1c2cccc(NCCCNCCO)c2C(=O)c2cccc(NCCCNCCO)c21,T/C,"endpoint: median survival time, dose: 6.25 mg/kg/injection, schedule: Q01DX009 (ip), vehicle: acid diluted with saline",105 % of control
same,T/C,"endpoint: median survival time, dose: 12.5 mg/kg/injection, schedule: Q01DX009 (ip), vehicle: acid diluted with saline",117 % of control
same,T/C,"endpoint: median survival time, dose: 25.0 mg/kg/injection, schedule: Q01DX009 (ip), vehicle: acid diluted with saline",116 % of control
same,T/C,"endpoint: median survival time, dose: 50.0 mg/kg/injection, schedule: Q01DX009 (ip), vehicle: acid diluted with saline",88 % of control
O=NN(CCCl)C(=O)Nc1cc(NC(=O)N(CCCl)N=O)cc(C(=O)O)c1,T/C,"endpoint: mean survival time, dose: 10.0 mg/kg/injection, schedule: Q04DX003 (ip), vehicle: saline with Tween-80",186 % of control
same,T/C,"endpoint: mean survival time, dose: 20.0 mg/kg/injection, schedule: Q04DX003 (ip), vehicle: saline with Tween-80",212 % of control
CCC(=O)OC1(c2ccccc2)CCN(C/C=C/c2ccccc2[N+](=O)[O-])CC1,T/C,"endpoint: median survival time, dose: 12.5 mg/kg/injection, schedule: Q04DX003 (ip), vehicle: saline with Tween-80",100 % of control
same,T/C,"endpoint: median survival time, dose: 25.0 mg/kg/injection, schedule: Q04DX003 (ip), vehicle: saline with Tween-80",88 % of control
same,T/C,"endpoint: median survival time, dose: 50.0 mg/kg/injection, schedule: Q04DX003 (ip), vehicle: saline with Tween-80",100 % of control
same,T/C,"endpoint: median survival time, dose: 100.0 mg/kg/injection, schedule: Q04DX003 (ip), vehicle: saline with Tween-80",100 % of control
CCC/C=C/C(O)C(C)C(C)C (centres undefined),T/C,"endpoint: mean survival time, dose: 50.0 mg/kg/injection, schedule: Q01DX009 (ip), vehicle: saline with Tween-80",103 % of control
same,T/C,[1],103 % of control
same,T/C,[2],98 % of control
CN(C)/C(=C\C(=O)c1ccccc1)c1ccccc1,T/C,"endpoint: mean survival time, dose: 25.0 mg/kg/injection, schedule: Q04DX003 (ip), vehicle: saline with Tween-80",104 % of control
same,T/C,"endpoint: mean survival time, dose: 50.0 mg/kg/injection, schedule: Q04DX003 (ip), vehicle: saline with Tween-80",108 % of control
same,T/C,[4],93 % of control
CCN(C(=O)Nc1ccccc1)c1ccccc1,T/C,"endpoint: mean survival time, dose: 75.0 mg/kg/injection, schedule: Q04DX003 (ip), vehicle: saline with Tween-80",98 % of control
same,T/C,"endpoint: mean survival time, dose: 150.0 mg/kg/injection, schedule: Q04DX003 (ip), vehicle: saline with Tween-80",98 % of control
same,T/C,"endpoint: mean survival time, dose: 300.0 mg/kg/injection, schedule: Q04DX003 (ip), vehicle: saline with Tween-80",106 % of control
S=c1[nH]ncn1/N=C/c1ccccc1Cl,T/C,[4],95 % of control
same,T/C,[5],101 % of control
same,T/C,[6],89 % of control
